Read-outs that look alike come from different tables or passages of the source. No end group written: not given here.
Experiments:
E. cloacae = test: microbe, parasite or virus in culture; settings: for MIC E. cloacae, 12.5% MHB: 12.5% MHB pH 7.4; for MIC E. cloacae, 12.5% MHB / MIC E. cloacae, full MHB: 16–20 h at 37 °C; for MIC E. cloacae, full MHB: full MHB pH 7.4; for MIC E. cloacae: supplement CSV
Method in brief: (§1)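 Minimal inhibitory concentrations come from broth microdilution in MH medium, with a top peptide concentration of 64 μg/mL halved serially.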

K. pneumoniae OXA-48 = test: microbe, parasite or virus in culture; settings: for MIC K. pneumoniae OXA-48, 12.5% MHB / MIC K. pneumoniae OXA-48, full MHB: carbapenem-resistant, 16–20 h at 37 °C; for MIC K. pneumoniae OXA-48, 12.5% MHB: 12.5% MHB pH 7.4; for MIC K. pneumoniae OXA-48, full MHB: full MHB pH 7.4; for MIC K. pneumoniae OXA-48: supplement CSV
Method in brief: as §1

[1] = test system: P. aeruginosa PA14 2P4 (pmrB); test: microbe, parasite or virus in culture; settings: for MIC P. aeruginosa PA14 2P4 (pmrB), 12.5% MHB / MIC P. aeruginosa PA14 2P4 (pmrB), full MHB: polymyxin B resistant strain, 16–20 h at 37 °C; for MIC P. aeruginosa PA14 2P4 (pmrB), 12.5% MHB: 12.5% MHB pH 7.4; for MIC P. aeruginosa PA14 2P4 (pmrB), full MHB: full MHB pH 7.4; for MIC P. aeruginosa PA14 2P4: supplement CSV
Method in brief: as §1

P. aeruginosa PA14 = test: microbe, parasite or virus in culture; settings: for MIC P. aeruginosa PA14, 12.5% MHB: 12.5% MHB pH 7.4; for MIC P. aeruginosa PA14, 12.5% MHB / MIC P. aeruginosa PA14, full MHB: 16–20 h at 37 °C, two different duplicate MIC determinations; for MIC P. aeruginosa PA14, full MHB: full MHB pH 7.4; for MIC P. aeruginosa PA14: supplement CSV
Method in brief: as §1

P. aeruginosa ZEM-1A = test: microbe, parasite or virus in culture; settings: for MIC P. aeruginosa ZEM-1A, 12.5% MHB / MIC P. aeruginosa ZEM-1A, full MHB: clinical isolate, 16–20 h at 37 °C, cells marked c: single measurement (in duplicates); for MIC P. aeruginosa ZEM-1A, 12.5% MHB: 12.5% MHB pH 7.4; for MIC P. aeruginosa ZEM-1A, full MHB: full MHB pH 7.4; for MIC P. aeruginosa ZEM-1A: supplement CSV, 12.5% MH pH 7.4
Method in brief: as §1

P. aeruginosa ZEM9A = test: microbe, parasite or virus in culture; settings: for MIC P. aeruginosa ZEM9A, 12.5% MHB / MIC P. aeruginosa ZEM9A, full MHB: clinical isolate, 16–20 h at 37 °C; for MIC P. aeruginosa ZEM9A, 12.5% MHB: 12.5% MHB pH 7.4; for MIC P. aeruginosa ZEM9A, full MHB: full MHB pH 7.4; for MIC P. aeruginosa ZEM9A: supplement CSV
Method in brief: as §1

[2] = test system: E. coli ribosome, U2506 of the 23S rRNA; test: Ribosome footprinting (CMCT modification of U2506); type: binding; settings: 1 μM peptide, 10.5 μM CMCT, purified E. coli ribosomes (5 pmol), 25 °C; primer extension, sequencing gel
Description: A 5 mL culture of E. coli MG1655 (WT-cells) was grown in LB overnight (220 rpm, 37 °C). One liter LB medium was inoculated, and bacteria were grown to OD = 0.6 (220 rpm. 37 °C); cells were centrifuged in centrifuge bottles, and the pellet was resuspended in ice-cold water and transferred in 50 mL falcon tubes. Falcon tubes were centrifuged, the supernatant was removed, the pellet was resuspended in 15 mL polysome buffer (TRIS/HCl pH 7.5 20 mM, NH4Cl 100 mM, MgCl2 10 mM, EDTA 0.5 mM, β-mercaptoethanol 60 mM), frozen dropwise in N2 (l), and stored at −80 °C. The cells were ground in CryoMil with the standard program (1 min precooling, 2 min grinding 5/s, 2 min cooling, 2 min grinding 5/s). The powder was transferred in 50 mL falcon tubes containing N2 (l) and stored at −80 °C. The lysates were thawed with a water bath (30 °C), put on ice, transferred to precooled Eppendorf tubes, and centrifuged (5000 g, 2 min, 4 °C). The clear lysate was transferred to new precooled tubes, centrifuged (14 000 g, 10 min, 4 °C), and the supernatant was transferred to new precooled tubes. 300 mL of clear lysate was loaded on a 10–50% sucrose gradient in CMCT buffer (K-borate buffer pH 8 80 mM, MgCl2 25 mM, NH4Cl 100 mM) and ultracentrifuged (3 h, 234 050 g, 4 °C). The fractions containing monosomes and polysomes were collected and ultracentrifuged overnight (16 h, 260 800 g, 4 °C). The supernatant was discarded, and the pellet was washed with ice-cold CMCT buffer. The ribosomes were resuspended in 100 μL CMCT buffer with a mini magnetic stirring bar and stored on ice. The concentration of ribosomes was measured in 1/200 dilution in water.
Ribosomes (5 pmol) were mixed with 8 μL of CMCT buffer, the compound of interest 1 μM, and water to a final volume of 20 μL in a precooled tube and incubated at 25 °C for 10 min. 20 μL of CMCT (10.5 μM) in water was added and incubated at 25 °C for 30 min. The reaction was stopped with 160 μL of EDTA (30 μM), and the samples were stored on ice.
160 μL portion of RNA resuspension buffer and 40 μL of 10% SDS were added, and the samples were vigorously resuspended. 400 μL of prewarmed acid phenol was added, and the samples were incubated on a thermomixer (5 min, 1200 rpm, 65 °C). The samples were put on ice for 5 min and centrifuged (5 min, 14 000 g, RT). The watery phase was transferred to a new precooled tube, 400 μL of phenol–chloroform–isoamyl alcohol (4 °C) was added, and the samples were mixed (5 min, 1200 rpm, RT). The samples were centrifuged again (5 min, 14 000g, RT), and the watery phase was transferred to another precooled tube. 34 μL of 3 M NaOAc pH 5.5, 0.8 μL of Glycoblue and 400 μL of isopropanol were added, and the samples were incubated for 3 h at −80 °C. The samples were then centrifuged (40 min, 21 000g, 4 °C), and the pellet was washed with ice-cold 70% EtOH. The residual liquid was removed, and the samples were dried (5 min, 37 °C). The samples were resuspended in 20 μL of water, the concentration was measured, and the samples were −80 °C.
Primers designed to probe the positions 2506 of the 23S rRNA (5-[sequence]-3′) were labeled with radioactive phosphate (γ^32 P-ATP). […] To prepare primers for one reaction, 1 μL of primer (0.3 μM), 0.4 μL of 5× PNK-buffer, 0.25 μL of water, 0.2 μL of γ^32 P-ATP, and 0.15 μL of T4 PNK were mixed and incubated at 37 °C.

E. coli W3110 = test: Time-killing kinetic assay, E. coli; type: cell-based, Escherichia coli; settings: 8× MIC, full MHB pH 7.4, 0-6 h, n = 6
Description: (§2) Time-Killing Kinetic Assay
(§3) Single colonies of E. coli W3110 and K. pneumoniae NCTC418 were picked and grown overnight with shaking (180 rpm) in LB (Sigma-Aldrich, Buchs, Switzerland) medium 5 mL overnight at 37 °C. The overnight bacterial cultures were diluted to OD600 = 0.002 (2 × 10^6 CFU/mL) in fresh MHB medium. Stock solutions of AMPs in sterilized milliQ water were prepared in 1 mg/mL and were diluted to two times more than required concentration in fresh MHB (Sigma- Aldrich, Buchs, Switzerland) medium at pH 7.4. 100 μL of prepared bacteria solution in MHB and 100 μL of samples in MHB were mixed in a 96-well microtiter plate (TPP, untreated, Corning Incorporated, Kennebunk, USA). Untreated bacteria at 1 × 10^6 CFU/mL were used as a growth control. 96-well microtiter plates were incubated in 37 °C with shaking (180 rpm). Surviving bacteria were quantified at 0, 0.5, 1, 2, 4 and 6 h by plating 10 -fold dilutions of the sample in sterilized normal saline on LB agar plates. LB agar plates were incubated at 37 °C for 10 h, and the number of individual colonies was counted at each time point. The assay was performed in triplicate in a biosafety level 2 lab. […]

K. pneumoniae NCTC418 = test: Time-killing kinetic assay, K. pneumoniae; type: cell-based, Klebsiella pneumoniae; settings: 8× MIC, full MHB pH 7.4, 0-6 h, n = 6
Description: as §2, §3

[3] = test system: P. aeruginosa PA14 4.13 (phoQ); settings: for MIC P. aeruginosa PA14 4.13 (phoQ), 12.5% MHB / MIC P. aeruginosa PA14 4.13 (phoQ), full MHB: polymyxin B resistant strain, 16–20 h at 37 °C; for MIC P. aeruginosa PA14 4.13 (phoQ), 12.5% MHB: 12.5% MHB pH 7.4; for MIC P. aeruginosa PA14 4.13 (phoQ), full MHB: full MHB pH 7.4; for MIC P. aeruginosa PA14 4.13: supplement CSV

Row | Sequence | MIC E. cloacae, 12.5% MHB (E. cloacae) [µg/mL] | MIC E. cloacae, full MHB (E. cloacae) [µg/mL] | MIC E. cloacae (E. cloacae; 12.5% MH pH 7.4) [µg/mL] | MIC E. cloacae (E. cloacae; full MH pH 7.4) [µg/mL] | MIC K. pneumoniae OXA-48, 12.5% MHB (K. pneumoniae OXA-48) [µg/mL] | MIC K. pneumoniae OXA-48, full MHB (K. pneumoniae OXA-48) [µg/mL] | MIC K. pneumoniae OXA-48 (K. pneumoniae OXA-48; 12.5% MH pH 7.4) [µg/mL] | MIC K. pneumoniae OXA-48 (K. pneumoniae OXA-48; full MH pH 7.4) [µg/mL] | MIC P. aeruginosa PA14 2P4 (pmrB), 12.5% MHB [1] [µg/mL] | MIC P. aeruginosa PA14 2P4 (pmrB), full MHB [1] [µg/mL] | MIC P. aeruginosa PA14 2P4 ([1]; 12.5% MH pH 7.4) [µg/mL] | MIC P. aeruginosa PA14 2P4 ([1]; full MH pH 7.4) [µg/mL] | MIC P. aeruginosa PA14, 12.5% MHB (P. aeruginosa PA14) [µg/mL] | MIC P. aeruginosa PA14, full MHB (P. aeruginosa PA14) [µg/mL] | MIC P. aeruginosa PA14 (P. aeruginosa PA14; 12.5% MH pH 7.4) [µg/mL] | MIC P. aeruginosa PA14 (P. aeruginosa PA14; full MH pH 7.4) [µg/mL] | MIC P. aeruginosa ZEM-1A, 12.5% MHB (P. aeruginosa ZEM-1A) [µg/mL] | MIC P. aeruginosa ZEM-1A, full MHB (P. aeruginosa ZEM-1A) [µg/mL] | MIC P. aeruginosa ZEM-1A (P. aeruginosa ZEM-1A) [µg/mL] | MIC P. aeruginosa ZEM9A, 12.5% MHB (P. aeruginosa ZEM9A) [µg/mL] | further results
1 | VDKPPYLPRPRPPRRIYNR [sr5Cterm-Onc] (VDKPPYLPRPRPPRRIYNR-NH2; also: residues 15-19 stereorandomized (1:1 L/D mixture)) | 1 | 32 | 1 | 32 | 4 | 32 | 4 | 32 | 2 | > 64 | 2 | >64 | 8 | > 64 | 8 | >64 | 4 to 8 | 64 | 4 to 8 | 8 | MIC P. aeruginosa ZEM9A, full MHB (P. aeruginosa ZEM9A): > 64 µg/mL; MIC P. aeruginosa ZEM9A (P. aeruginosa ZEM9A; 12.5% MH pH 7.4): 8 µg/mL; MIC P. aeruginosa ZEM9A (P. aeruginosa ZEM9A; full MH pH 7.4): >64 µg/mL; Protection of U2506 of 23S rRNA from CMCT modification (band at C2507) [2]: protected from CMCT modification; Killing profile against E. coli (E. coli W3110): comparable kinetics to L-Onc; Killing profile against K. pneumoniae (K. pneumoniae NCTC418): comparable kinetics to L-Onc; MIC P. aeruginosa PA14 4.13 (phoQ), 12.5% MHB [3]: 8 µg/mL; MIC P. aeruginosa PA14 4.13 (phoQ), full MHB [3]: 64 µg/mL; MIC P. aeruginosa PA14 4.13 ([3]; 12.5% MH pH 7.4): 8 µg/mL; MIC P. aeruginosa PA14 4.13 ([3]; full MH pH 7.4): 64 µg/mL
2 | VDKPPYLPRPRPPRRIYNR [sr8Cterm-Onc] (VDKPPYLPRPRPPRRIYNR-NH2; also: residues 12-19 stereorandomized (1:1 L/D mixture)) | 0.5 | > 64 | 0.5 | >64 | 16 | 32 | 16 | 32 | 2 | > 64 | 2 | >64 | 8 | > 64 | 8 | >64 | 4 to 8 | 64 | 4 to 8 | 8 | MIC P. aeruginosa ZEM9A, full MHB (P. aeruginosa ZEM9A): > 64 µg/mL; MIC P. aeruginosa ZEM9A (P. aeruginosa ZEM9A; 12.5% MH pH 7.4): 8 µg/mL; MIC P. aeruginosa ZEM9A (P. aeruginosa ZEM9A; full MH pH 7.4): >64 µg/mL; Protection of U2506 of 23S rRNA from CMCT modification (band at C2507) [2]: protected from CMCT modification; Killing profile against E. coli (E. coli W3110): comparable kinetics to L-Onc; Killing profile against K. pneumoniae (K. pneumoniae NCTC418): comparable kinetics to L-Onc; MIC P. aeruginosa PA14 4.13 (phoQ), 12.5% MHB [3]: 8 µg/mL; MIC P. aeruginosa PA14 4.13 (phoQ), full MHB [3]: 64 µg/mL; MIC P. aeruginosa PA14 4.13 ([3]; 12.5% MH pH 7.4): 8 µg/mL; MIC P. aeruginosa PA14 4.13 ([3]; full MH pH 7.4): 64 µg/mL

Source: paper PMC11571207, “Stereorandomized Oncocins with Preserved Ribosome Binding and Antibacterial Activity” (Journal of Medicinal Chemistry, 2024)
